Data taken from PMC12016938, “A small molecule PKCε inhibitor reduces hyperalgesia induced by paclitaxel or opioid withdrawal” (JCI Insight, 2025).
“And” between values parts separate entries of the source, which are not always exact repeats. Equal entries are not always repeated. Where two headings read alike, the source gives them in different places.

Columns and labels:
[1] = biological target: T1, PKCγ (Homo sapiens, UniProt P05129); assay: Lance-FRET kinase assay, PKCγ; assay type: biochemical; details: Figure 1B
T1 construct: purchased SignalChem Biotech
Protocol: Kinase assays. CP612 was assayed against His-AVI–tagged human PKCε (1 nM) produced in Sf9 cells, and ROCK1 (Carna Biosciences; 5 nM) using the Lance-FRET kinase assay system (PerkinElmer Revvity). Other human recombinant PKCs (SignalChem Biotech) were assayed in triplicate at the following concentrations: PKCβII 1.6 nM, PKCγ 500 pM, PKCδ 5 nM, PKCθ 500 pM, and PKCζ 500 pM. PKCs were incubated in a 15 μL reaction volume with kinase buffer (20 mM Tris-HCL [pH 7.4], 10 mM MgCl2, 0.25 mM EGTA, 0.1 mg/mL BSA, and 0.15% Triton X-100), 50 nM ULight-labeled CREBtide […] (PerkinElmer, TRF0107, Revvity), and test compound. […] After incubation at 27°C for another 60 minutes, phosphorylation was detected using a FlexStation 3 Microplate Reader (Molecular Devices) in LANCE TR-FRET mode (excitation = 340 nm, emission = 665 nm) and expressed as relative fluorescence units (RFU). The percentage of inhibition was calculated as: (signal without test compound − signal with test compound)/(signal without test compound − signal without ATP) × 100. […]
Kinase assays used 11-point concentration-response curves and results were analyzed by nonlinear regression using Prism 9 (GraphPad Software) to determine IC50 values. […] Scores for pain threshold, conditioned place preference, and self-administration were analyzed by ANOVA using the following factors. […]

[2] = Plasma protein binding, equilibrium dialysis (RED); assay type: in vitro ADME, human; details: for recovery at 4 h, 10 µM: Rapid Equilibrium Dialysis (RED) device
Protocol: Plasma protein binding. Binding of CP612 to human plasma proteins was measured by equilibrium dialysis using a Rapid Equilibrium Dialysis (RED) Device (Thermo Fisher Scientific). The device uses plates with wells preloaded with equilibrium dialysis membrane inserts, each of which includes 2 side-by-side chambers separated by a dialysis membrane. […] All compounds were tested in triplicate. […] A total of 200 μL of diluted test compound was then added to the plasma chambers of triplicate wells of a 48-sample RED plate (Thermo Fisher Scientific). In total, 400 μL of 0.1M PBS buffer were added to each buffer chamber. The plate was sealed with adhesive foil and incubated at 37°C with shaking for 4 hours, after which 30 μL were removed from each chamber and diluted with either 30 μL of plasma (for buffer chamber samples) or 30 μL of 0.1M PBS (for plasma chamber samples). Samples were extracted with 3 volumes of acetonitrile, centrifuged at 16,000g at 4°C for 10 minutes, and analyzed by LC-MS to calculate the amount of drug in each chamber. The percentage of free compound was calculated as the concentration in the buffer chamber/concentration in the plasma chamber × 100%. The percentage of protein-bound compound was calculated as 100% – the percentage of free compound.

[3] = biological target: T2, CLK4 (Homo sapiens, UniProt Q9HAZ1); assay: scanMax kinome panel, CLK4; assay type: binding; details: 200 nM CP612; read-out: scanMax % of control, CLK4
T2 construct: purchased Eurofins-DiscoverX
Protocol: CP612 was screened for kinome specificity at 200 nM against 468 kinases using the scanMax assay panel from Eurofins-DiscoverX. CP612 inhibited 10 other WT kinases besides PKCε, all to < 10% of control: CLK1 (CDC Like Kinase 1), CLK4, PKN1 (Protein kinase N1), PKN2, PKCδ, PKCη, PKCθ, PRKG2 (Protein Kinase CGMP-Dependent 2), ROCK1, and ROCK2.

T2 sequence (Q9HAZ1 whole entry): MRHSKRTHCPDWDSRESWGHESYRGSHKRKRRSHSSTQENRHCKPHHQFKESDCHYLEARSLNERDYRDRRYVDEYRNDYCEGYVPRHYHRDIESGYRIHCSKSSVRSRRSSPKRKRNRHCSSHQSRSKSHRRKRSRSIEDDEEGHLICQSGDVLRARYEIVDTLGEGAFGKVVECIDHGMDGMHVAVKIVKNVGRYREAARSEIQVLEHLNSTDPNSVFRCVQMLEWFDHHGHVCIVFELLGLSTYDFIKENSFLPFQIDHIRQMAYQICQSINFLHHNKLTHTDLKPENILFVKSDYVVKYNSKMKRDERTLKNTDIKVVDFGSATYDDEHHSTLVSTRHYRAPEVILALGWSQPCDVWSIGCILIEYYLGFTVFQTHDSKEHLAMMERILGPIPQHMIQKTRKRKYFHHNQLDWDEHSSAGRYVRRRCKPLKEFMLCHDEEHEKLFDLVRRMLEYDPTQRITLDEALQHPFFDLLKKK

Question: What does the source list for `N[C@H](CNC(=O)C1(c2ccc(Cl)cc2)CCCC1)c1ccc(C(=O)Nc2ccncc2)cc1` [CP612]?
Answer: Inhibition of conventional PKCγ [1]: weakly inhibited; % Free ([2]; (Corrected concentration in PBS / Corrected concentration in Plasma) * 100, individual replicates): 9.57% and 8.99%; % Recovery ([2]; PBS + Plasma relative to starting concentration of 10 uM, individual replicates): 52.74% and 59.65%; % Absolute (Sample_PBS) ([2]; PBS compartment, relative to starting concentration of 10 uM, individual replicates): 6.46% and 4.60% and 4.92%; fraction unbound at 4 h, 10 μM ([2]; human plasma, individual replicates, read-out: % Bound (converted)): 0.121; fraction unbound at 4 h, 10 μM ([2]; human, human plasma, 37°C, 4 hours, read-out: Plasma protein binding (% bound) (converted)): 0.102; recovery at 4 h, 10 µM ([2]; human, human plasma, PBS + Plasma relative to starting concentration of 10 uM, individual replicates, read-out: % Recovery): 59.9%; recovery at 4 h, 10 µM ([2]; human, human plasma, PBS + Plasma relative to starting concentration of 10 uM, mean of replicates, read-out: % Recovery, Mean): 57.4%; fraction unbound at 4 h, 10 μM ([2]; human, plasma, (Corrected concentration in PBS / Corrected concentration in Plasma) * 100, individual replicates, read-out: % Free): 0.121; fraction unbound at 4 h, 10 μM ([2]; human, plasma, mean of replicates, read-out: % Bound, Mean (converted)): 0.102; fraction unbound at 4 h, 10 μM ([2]; human, plasma, mean of replicates, read-out: % Free, Mean): 0.102; % Bound ([2]; individual replicates): 90.43% and 91.01%; % Absolute (Sample_Plasma) ([2]; plasma compartment, relative to starting concentration of 10 uM, individual replicates): 53.46% and 48.13% and 54.72%; remaining binding at 0.2 µM [3]: < 10%
